# Source: ChEMBL document CHEMBL1137765, “Design and synthesis of novel chloramphenicol amine derivatives as potent aminopeptidase N (APN/CD13) inhibitors” (Bioorg Med Chem, 2009)
# Target: T1, Aminopeptidase N (Sus scrofa, UniProt P15145)
# T1 sequence (P15145 whole entry): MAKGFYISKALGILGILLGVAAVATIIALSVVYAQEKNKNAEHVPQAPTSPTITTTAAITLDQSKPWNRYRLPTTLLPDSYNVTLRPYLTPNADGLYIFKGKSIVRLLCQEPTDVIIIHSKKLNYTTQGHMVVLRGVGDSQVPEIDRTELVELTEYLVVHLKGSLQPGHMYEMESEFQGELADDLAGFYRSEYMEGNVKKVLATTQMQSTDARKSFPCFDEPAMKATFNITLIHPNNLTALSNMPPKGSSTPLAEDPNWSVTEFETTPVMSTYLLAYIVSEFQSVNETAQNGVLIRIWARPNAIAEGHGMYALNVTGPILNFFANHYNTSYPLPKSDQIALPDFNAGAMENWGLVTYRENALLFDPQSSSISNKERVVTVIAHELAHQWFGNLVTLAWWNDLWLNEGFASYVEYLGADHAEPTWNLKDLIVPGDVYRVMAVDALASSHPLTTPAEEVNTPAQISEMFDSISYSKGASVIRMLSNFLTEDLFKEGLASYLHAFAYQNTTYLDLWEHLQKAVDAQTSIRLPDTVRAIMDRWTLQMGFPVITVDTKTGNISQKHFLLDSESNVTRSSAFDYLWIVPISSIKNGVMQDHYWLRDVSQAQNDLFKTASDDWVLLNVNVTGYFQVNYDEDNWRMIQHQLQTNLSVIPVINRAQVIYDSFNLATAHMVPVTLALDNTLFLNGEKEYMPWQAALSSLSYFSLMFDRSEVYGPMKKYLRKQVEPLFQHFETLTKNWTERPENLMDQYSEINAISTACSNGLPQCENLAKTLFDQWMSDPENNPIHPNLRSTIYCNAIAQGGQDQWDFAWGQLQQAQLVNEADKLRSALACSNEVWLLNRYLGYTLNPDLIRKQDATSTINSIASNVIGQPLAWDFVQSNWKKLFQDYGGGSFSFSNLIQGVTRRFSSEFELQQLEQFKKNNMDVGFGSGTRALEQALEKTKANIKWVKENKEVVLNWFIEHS
# Experiment: Inhibition of pig kidney microsomal Aminopeptidase N
# Conditions: not given
row,SMILES,IC50 [µM]
1,CCCNC(=O)[C@H](N)[C@@H](O)c1ccc([N+](=O)[O-])cc1,183
2,N[C@@H](C(=O)N[C@@H](Cc1cc2ccccc2[nH]1)C(=O)O)[C@@H](O)c1ccc([N+](=O)[O-])cc1,162
3,N[C@@H](C(=O)NCc1ccc(F)cc1)[C@@H](O)c1ccc([N+](=O)[O-])cc1,302
4,N[C@@H](C(=O)O)[C@@H](O)c1ccc([N+](=O)[O-])cc1,140
5,CCCCNC(=O)[C@H](N)[C@@H](O)c1ccc([N+](=O)[O-])cc1,233
6,COc1ccc(CNC(=O)[C@H](N)[C@@H](O)c2ccc([N+](=O)[O-])cc2)cc1,145
7,CC(C)[C@H](NC(=O)[C@H](N)[C@@H](O)c1ccc([N+](=O)[O-])cc1)C(=O)O,160
8,N[C@@H](C(=O)NCc1ccccc1)[C@@H](O)c1ccc([N+](=O)[O-])cc1,170
9,N[C@@H](C(=O)NCCCCCC(=O)O)[C@@H](O)c1ccc([N+](=O)[O-])cc1,1390
10,N[C@@H](C(=O)NCCCC(=O)O)[C@@H](O)c1ccc([N+](=O)[O-])cc1,2890
11,CC(C)NC(=O)[C@H](N)[C@@H](O)c1ccc([N+](=O)[O-])cc1,251
12,CCCCCNC(=O)[C@H](N)[C@@H](O)c1ccc([N+](=O)[O-])cc1,522
13,N[C@@H](C(=O)NC1CCCCC1)[C@@H](O)c1ccc([N+](=O)[O-])cc1,251

# Other lines, results leading:
row,IC50 [µM],SMILES
1,85.6,CC(C)C[C@H](NC(=O)[C@H](N)[C@@H](O)c1ccc([N+](=O)[O-])cc1)C(=O)O
2,116,N[C@@H](C(=O)N[C@H](CO)Cc1ccccc1)[C@@H](O)c1ccc([N+](=O)[O-])cc1
3,51.4,N[C@@H](C(=O)NCCc1ccc(O)cc1)[C@@H](O)c1ccc([N+](=O)[O-])cc1
4,106,N[C@@H](C(=O)NCCc1ccccc1)[C@@H](O)c1ccc([N+](=O)[O-])cc1
5,54,CC(C)C[C@H](NC(=O)[C@H](N)[C@@H](O)c1ccc([N+](=O)[O-])cc1)C(=O)NO
6,90.3,N[C@@H](C(=O)NCCc1ccc2c(c1)OCO2)[C@@H](O)c1ccc([N+](=O)[O-])cc1
7,7.1,N[C@@H](C(=O)N[C@@H](Cc1ccccc1)C(=O)N[C@@H](Cc1ccccc1)C(=O)O)[C@@H](O)c1ccc([N+](=O)[O-])cc1
8,31.3,N[C@@H](C(=O)N[C@@H](Cc1ccccc1)C(=O)NO)[C@@H](O)c1ccc([N+](=O)[O-])cc1
9,34.6,CC(C)C[C@H](NC(=O)[C@H](N)[C@@H](O)c1ccc([N+](=O)[O-])cc1)C(=O)N[C@@H](Cc1ccccc1)C(=O)O
10,60.4,N[C@@H](C(=O)N[C@@H](Cc1ccccc1)C(=O)O)[C@@H](O)c1ccc([N+](=O)[O-])cc1
11,137,N[C@@H](C(=O)NCCc1ccccc1Cl)[C@@H](O)c1ccc([N+](=O)[O-])cc1

# System: HL-60
# Experiment: cells
# Conditions: Homo sapiens, HL-60, 48 h
# Description: Antiproliferative activity against human HL60 cells after 48 hrs by MTT assay
row,IC50 [µM],SMILES
1,1650,CC(C)C[C@H](NC(=O)[C@@H](O)[C@H](N)Cc1ccccc1)C(=O)O [UBENIMEX]
2,2210,N[C@@H](C(=O)N[C@@H](Cc1ccccc1)C(=O)N[C@@H](Cc1ccccc1)C(=O)O)[C@@H](O)c1ccc([N+](=O)[O-])cc1
3,2020,CC(C)C[C@H](NC(=O)[C@H](N)[C@@H](O)c1ccc([N+](=O)[O-])cc1)C(=O)N[C@@H](Cc1ccccc1)C(=O)O
